Assays:
[1] = biological target: T1, human TRPV1 receptor (hTRPV1) (Homo sapiens (Human), UniProt Q8NER1); assay: Acid activation assay (pH 5.0, FLIPR intracellular Ca2+); assay type: cell-based; details: Table 1; 37.5 μM antagonist, percentage of the maximal pH 5.0-induced response remaining; read-out: hTRPV1 H+ (max % remain)
Procedure, shortened: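 1321N1 astrocytoma cells stably expressing homomeric hTRPV1, loaded with Calcium-4 dye 90–120 min at 25 °C. Compounds, 12-point half-log range, added 3 min before pH 5.0 DPBS/MES challenge; intracellular Ca2+ read by FLIPR fluorescence.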

[2] = biological target: T1, human TRPV1 receptor (hTRPV1); assay: Capsaicin activation assay (FLIPR intracellular Ca2+); assay type: cell-based; details: Table 1; inhibition of capsaicin-induced intracellular Ca2+ increase, HEK293 cells expressing human TRPV1; read-out: hTRPV1 cap IC50
Procedure, shortened: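 HEK293 cells stably expressing human TRPV1, loaded with Calcium-4 dye 90–120 min at room temperature, preincubated 3 min with compound (12-point one-third-log range) before capsaicin (200 nM as 4× solution). Peak FLIPR fluorescence minus baseline expressed as percent of 50 nM capsaicin control response.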

T1 sequence (Q8NER1 whole entry): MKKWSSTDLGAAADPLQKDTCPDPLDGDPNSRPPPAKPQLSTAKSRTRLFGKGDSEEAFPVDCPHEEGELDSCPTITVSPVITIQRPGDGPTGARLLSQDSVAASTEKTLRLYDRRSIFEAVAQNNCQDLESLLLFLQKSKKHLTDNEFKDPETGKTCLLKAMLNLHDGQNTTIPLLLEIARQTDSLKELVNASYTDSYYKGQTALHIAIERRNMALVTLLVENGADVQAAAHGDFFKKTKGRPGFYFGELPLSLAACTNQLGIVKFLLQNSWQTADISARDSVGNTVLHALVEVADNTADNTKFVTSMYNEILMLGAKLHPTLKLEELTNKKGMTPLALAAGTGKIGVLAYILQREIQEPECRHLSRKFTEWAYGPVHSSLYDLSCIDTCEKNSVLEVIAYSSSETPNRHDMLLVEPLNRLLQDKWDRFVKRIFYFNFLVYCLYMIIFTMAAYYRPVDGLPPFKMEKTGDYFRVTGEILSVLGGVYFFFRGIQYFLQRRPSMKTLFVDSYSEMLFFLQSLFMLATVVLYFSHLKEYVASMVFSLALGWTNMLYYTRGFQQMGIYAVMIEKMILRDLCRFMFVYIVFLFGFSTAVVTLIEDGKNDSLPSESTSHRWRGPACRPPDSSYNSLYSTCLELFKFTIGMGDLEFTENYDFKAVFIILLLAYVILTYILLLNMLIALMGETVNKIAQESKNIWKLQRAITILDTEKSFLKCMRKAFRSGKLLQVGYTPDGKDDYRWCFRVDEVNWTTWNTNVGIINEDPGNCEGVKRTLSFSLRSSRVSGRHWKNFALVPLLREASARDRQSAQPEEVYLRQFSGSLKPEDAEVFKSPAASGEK

A remaining activity at 37.5 µM [1] of 5% and an IC50 [2] of 10 nM were found for `O=C(Nc1cccc2[nH]ncc12)N[C@H]1CC[C@H](c2ccccc2F)C1` [Example 62, 1-[(1S,3S)-3-(2-fluorophenyl)cyclopentyl]-3-(1H-indazol-4-yl)urea] in this work.
A remaining activity at 37.5 µM [1] of 38% and an IC50 [2] of 122 nM were found for `O=C(Nc1cccc2[nH]ncc12)N[C@H]1C=C[C@@H](c2ccccc2)C1` [Example 63, 1-(1H-indazol-4-yl)-3-[(1R,4S)-4-phenylcyclopent-2-en-1-yl]urea] in this work.
A remaining activity at 37.5 µM [1] of 12% and an IC50 [2] of 8 nM were found for `O=C(Nc1cccc2[nH]ncc12)N[C@@H]1CC[C@H](c2cccc(F)c2)C1` [Example 65, 1-[(1R,3S)-3-(3-fluorophenyl)cyclopentyl]-3-(1H-indazol-4-yl)urea] in this work.
A remaining activity at 37.5 µM [1] of 18% and an IC50 [2] of 11 nM were found for `O=C(Nc1cccc2[nH]ncc12)N[C@H]1CC[C@@H](c2ccccc2F)C1` [Example 67, 1-[(1S,3R)-3-(2-fluorophenyl)cyclopentyl]-3-(1H-indazol-4-yl)urea] in this work.
A remaining activity at 37.5 µM [1] of 41% and an IC50 [2] of 48 nM were found for `O=C(Nc1cccc2[nH]ncc12)N[C@@H]1CC[C@@H](c2cccc(F)c2)C1` [Example 68, 1-[(1R,3R)-3-(3-fluorophenyl)cyclopentyl]-3-(1H-indazol-4-yl)urea] in this work.
A remaining activity at 37.5 µM [1] of 2% and an IC50 [2] of 12 nM were found for `O=C(Nc1cccc2[nH]ncc12)N[C@H]1CC[C@@H](c2cccc(F)c2)C1` [Example 69, 1-[(1S,3R)-3-(3-fluorophenyl)cyclopentyl]-3-(1H-indazol-4-yl)urea] in this work.
A remaining activity at 37.5 µM [1] of 22% and an IC50 [2] of 5.6 nM were found for `Cc1cc2c(NC(=O)N[C@@H]3CC[C@H](c4ccccc4F)C3)c(F)ccc2cn1` [Example 70, 1-(6-fluoro-3-methylisoquinolin-5-yl)-3-[(1R,3S)-3-(2-fluorophenyl)cyclopentyl]urea] in this work.
A remaining activity at 37.5 µM [1] of 15% and an IC50 [2] of 8.6 nM were found for `Cc1cc2c(NC(=O)N[C@H]3CC[C@H](c4ccccc4F)C3)c(F)ccc2cn1` [Example 71, 1-(6-fluoro-3-methylisoquinolin-5-yl)-3-[(1S,3S)-3-(2-fluorophenyl)cyclopentyl]urea] in this work.
A remaining activity at 37.5 µM [1] of 22% and an IC50 [2] of 80 nM were found for `C[C@@]1(c2ccccc2)CC[C@H](NC(=O)Nc2cccc3[nH]ncc23)C1` [Example 72, 1-(1H-indazol-4-yl)-3-[(1S,3R)-3-methyl-3-phenylcyclopentyl]urea] in this work.
A remaining activity at 37.5 µM [1] of 11% and an IC50 [2] of 164 nM were found for `C[C@@]1(c2ccccc2)CC[C@@H](NC(=O)Nc2cccc3[nH]ncc23)C1` [Example 73, 1-(1H-indazol-4-yl)-3-[(1R,3R)-3-methyl-3-phenylcyclopentyl]urea] in this work.
A remaining activity at 37.5 µM [1] of 44% and an IC50 [2] of 3.5 nM were found for `Cc1cc2c(NC(=O)N[C@H]3CC[C@H](c4cccc(F)c4)C3)c(F)ccc2cn1` [Example 74, 1-(6-fluoro-3-methylisoquinolin-5-yl)-3-[(1S,3S)-3-(3-fluorophenyl)cyclopentyl]urea] in this work.
A remaining activity at 37.5 µM [1] of 16% and an IC50 [2] of 21 nM were found for `Cc1cc2c(NC(=O)N[C@@H]3CC[C@@](C)(c4ccccc4)C3)c(F)ccc2cn1` [Example 75, 1-(6-fluoro-3-methylisoquinolin-5-yl)-3-[(1R,3R)-3-methyl-3-phenylcyclopentyl]urea] in this work.
A remaining activity at 37.5 µM [1] of 9% and an IC50 [2] of 2 nM were found for `Cc1cc2c(NC(=O)N[C@@H]3CC[C@H](c4cccc(F)c4)C3)c(F)ccc2cn1` [Example 76, 1-(6-fluoro-3-methylisoquinolin-5-yl)-3-[(1R,3S)-3-(3-fluorophenyl)cyclopentyl]urea] in this work.
In the case of `CN1C(=O)CCc2ccc(NC(=O)N[C@@H]3CC[C@H](c4ccccc4)C3)cc21` [Example 77, 1-(1-methyl-2-oxo-1,2,3,4-tetrahydroquinolin-7-yl)-3-[(1R,3S)-3-phenylcyclopentyl]urea], the remaining activity at 37.5 µM [1] is reported as 56% and the IC50 [2] is reported as > 37500 nM.
A remaining activity at 37.5 µM [1] of 75% and an IC50 [2] of 11 nM were found for `Cn1c(=O)ccc2c(NC(=O)N[C@H]3CC[C@@H](c4cccc(F)c4)C3)cccc21` [Example 79, 1-[(1S,3R)-3-(3-fluorophenyl)cyclopentyl]-3-(1-methyl-2-oxo-1,2-dihydroquinolin-5-yl)urea] in this work.
A remaining activity at 37.5 µM [1] of 55% and an IC50 [2] of 10 nM were found for `Cn1c(=O)ccc2c(NC(=O)N[C@H]3CC[C@@H](c4ccccc4F)C3)cccc21` [Example 80, 1-[(1S,3R)-3-(2-fluorophenyl)cyclopentyl]-3-(1-methyl-2-oxo-1,2-dihydroquinolin-5-yl)urea] in this work.
A remaining activity at 37.5 µM [1] of 66% and an IC50 [2] of 2.3 nM were found for `Cn1c(=O)ccc2c(NC(=O)N[C@@H]3CC[C@@H](c4ccccc4F)C3)cccc21` [Example 81, 1-[(1R,3R)-3-(2-fluorophenyl)cyclopentyl]-3-(1-methyl-2-oxo-1,2-dihydroquinolin-5-yl)urea] in this work.
A remaining activity at 37.5 µM [1] of 12% and an IC50 [2] of 3.3 nM were found for `Cc1cc2c(NC(=O)N[C@@H]3CC[C@@H](c4ccccc4F)C3)c(F)ccc2cn1` [Example 82, 1-(6-fluoro-3-methylisoquinolin-5-yl)-3-[(1R,3R)-3-(2-fluorophenyl)cyclopentyl]urea] in this work.
A remaining activity at 37.5 µM [1] of 48% and an IC50 [2] of 5.3 nM were found for `Cc1cc2c(NC(=O)N[C@H]3CC[C@@H](c4ccccc4F)C3)c(F)ccc2cn1` [Example 83, 1-(6-fluoro-3-methylisoquinolin-5-yl)-3-[(1S,3R)-3-(2-fluorophenyl)cyclopentyl]urea] in this work.
A remaining activity at 37.5 µM [1] of 13% and an IC50 [2] of 5.4 nM were found for `Cc1cc2c(NC(=O)N[C@@H]3CC[C@@H](c4cccc(F)c4)C3)c(F)ccc2cn1` [Example 84, 1-(6-fluoro-3-methylisoquinolin-5-yl)-3-[(1R,3R)-3-(3-fluorophenyl)cyclopentyl]urea] in this work.
A remaining activity at 37.5 µM [1] of 21% and an IC50 [2] of 8.9 nM were found for `Cc1cc2c(NC(=O)N[C@H]3CC[C@@H](c4cccc(F)c4)C3)c(F)ccc2cn1` [Example 85, 1-(6-fluoro-3-methylisoquinolin-5-yl)-3-[(1S,3R)-3-(3-fluorophenyl)cyclopentyl]urea] in this work.
A remaining activity at 37.5 µM [1] of 0% and an IC50 [2] of 80 nM were found for `O=C(Nc1cccc2c1C[C@@H](O)C2)N[C@@H]1CC[C@@H](c2cccc(F)c2)C1` [Example 86, 1-[(1R,3R)-3-(3-fluorophenyl)cyclopentyl]-3-[(2S)-2-hydroxy-2,3-dihydro-1H-inden-4-yl]urea] in this work.
A remaining activity at 37.5 µM [1] of 17% and an IC50 [2] of 248 nM were found for `O=C(Nc1cccc2c1C[C@@H](O)C2)N[C@H]1CC[C@@H](c2cccc(F)c2)C1` [Example 87, 1-[(1S,3R)-3-(3-fluorophenyl)cyclopentyl]-3-[(2S)-2-hydroxy-2,3-dihydro-1H-inden-4-yl]urea] in this work.
A remaining activity at 37.5 µM [1] of 16% and an IC50 [2] of 20 nM were found for `O=C(Nc1cccc2c1C[C@@H](O)C2)N[C@@H]1CC[C@@H](c2ccccc2F)C1` [Example 88, 1-[(1R,3R)-3-(2-fluorophenyl)cyclopentyl]-3-[(2S)-2-hydroxy-2,3-dihydro-1H-inden-4-yl]urea] in this work.
A remaining activity at 37.5 µM [1] of 15% and an IC50 [2] of 88 nM were found for `O=C(Nc1cccc2c1C[C@@H](O)C2)N[C@H]1CC[C@@H](c2ccccc2F)C1` [Example 89, 1-[(1S,3R)-3-(2-fluorophenyl)cyclopentyl]-3-[(2S)-2-hydroxy-2,3-dihydro-1H-inden-4-yl]urea] in this work.
A remaining activity at 37.5 µM [1] of 54% and an IC50 [2] of 109 nM were found for `O=C(Nc1cccc2c1C[C@H](O)C2)N[C@@H]1CC[C@@H](c2cccc(F)c2)C1` [Example 90, 1-[(1R,3R)-3-(3-fluorophenyl)cyclopentyl]-3-[(2R)-2-hydroxy-2,3-dihydro-1H-inden-4-yl]urea] in this work.
A remaining activity at 37.5 µM [1] of 63% and an IC50 [2] of 338 nM were found for `O=C(Nc1cccc2c1C[C@H](O)C2)N[C@H]1CC[C@@H](c2cccc(F)c2)C1` [Example 91, 1-[(1S,3R)-3-(3-fluorophenyl)cyclopentyl]-3-[(2R)-2-hydroxy-2,3-dihydro-1H-inden-4-yl]urea] in this work.
A remaining activity at 37.5 µM [1] of 66% and an IC50 [2] of 79 nM were found for `O=C(Nc1cccc2c1C[C@H](O)C2)N[C@@H]1CC[C@@H](c2ccccc2F)C1` [Example 92, 1-[(1R,3R)-3-(2-fluorophenyl)cyclopentyl]-3-[(2R)-2-hydroxy-2,3-dihydro-1H-inden-4-yl]urea] in this work.
A remaining activity at 37.5 µM [1] of 55% and an IC50 [2] of 93 nM were found for `O=C(Nc1cccc2c1C[C@H](O)C2)N[C@H]1CC[C@@H](c2ccccc2F)C1` [Example 93, 1-[(1S,3R)-3-(2-fluorophenyl)cyclopentyl]-3-[(2R)-2-hydroxy-2,3-dihydro-1H-inden-4-yl]urea] in this work.
A remaining activity at 37.5 µM [1] of 46% and an IC50 [2] of 14 nM were found for `CN1C(=O)CCc2c(NC(=O)N[C@@H]3CC[C@H](c4ccccc4)C3)cccc21` [Example 94, 1-(1-methyl-2-oxo-1,2,3,4-tetrahydroquinolin-5-yl)-3-[(1R,3S)-3-phenylcyclopentyl]urea] in this work.
A remaining activity at 37.5 µM [1] of 34% and an IC50 [2] of 58 nM were found for `CN1C(=O)CCc2c(NC(=O)N[C@H]3CC[C@@H](c4ccccc4)C3)cccc21` [Example 95, 1-(1-methyl-2-oxo-1,2,3,4-tetrahydroquinolin-5-yl)-3-[(1S,3R)-3-phenylcyclopentyl]urea] in this work.
A remaining activity at 37.5 µM [1] of 46% and an IC50 [2] of 69 nM were found for `CN1C(=O)CCc2c(NC(=O)N[C@@H]3CC[C@@H](c4cccc(F)c4)C3)cccc21` [Example 97, 1-[(1R,3R)-3-(3-fluorophenyl)cyclopentyl]-3-(1-methyl-2-oxo-1,2,3,4-tetrahydroquinolin-5-yl)urea] in this work.
A remaining activity at 37.5 µM [1] of 32% and an IC50 [2] of 54 nM were found for `CN1C(=O)CCc2c(NC(=O)N[C@H]3CC[C@@H](c4cccc(F)c4)C3)cccc21` [Example 98, 1-[(1S,3R)-3-(3-fluorophenyl)cyclopentyl]-3-(1-methyl-2-oxo-1,2,3,4-tetrahydroquinolin-5-yl)urea] in this work.

Source: US8802711B2, “TRPV1 antagonists” (AbbVie Inc., priority 2011, dated 2014)
